Here are results for one compound from article PMC10299677, “Fluorinated Benzofuran and Dihydrobenzofuran as Anti-Inflammatory and Potential Anticancer Agents” (International Journal of Molecular Sciences, 2023).

A short description of the data set: Toxicity on macrophages (BMDM), WST-1 assay. It is filed as cell-based, C57BL/6J mice. Particulars: C57BL/6J, mouse, bone marrow-derived macrophages (BMDM), read-out: macrophage viability. The procedure: WST-1 assay (Sigma-Aldrich, 5015944001) was used to determine the toxicity of the synthesized compounds on BMDM and HCT116 (ATCC, CCL-247), kindly provided by Dr. Nadine Darwiche, Department of Biochemistry and Molecular Genetics, American University of Beirut, Lebanon. Briefly, macrophages (50,000 cells per well) and HCT116 (20,000 cells per well) were plated in a 96-well plate in RPMI 1640 culture medium containing 10% fetal bovine serum (FBS) and grown for 24 h. Cells (in triplicates) were treated with 10 or 50 μM of the compounds for macrophages, and 50 or 100 μM for HCT116. Culture medium without cells and cells without treatment were used as basal and maximal activity, respectively. Results were expressed as percentage of cells without treatment.
F i g u re S1: E ff e c t of fluorin at ed benzofuran derivatives on m acrophages
viabilit y. C ells in cub at ed with 10 and 50 μM of benzofuran d eri vativ es
(compounds 1 to 9) bel onging to groups І, II, III and IV for 24 hours. Cell
viabilit y w as det ermin ed by WST-1 assay. Non-t r eated m acrophages wer e used
as cont rol. Results were shown as mean ± SEM (n=3) . *p< 0.05 comp ar ed to the
vehicle –treated cells (basal), one-way ANOVA followed by Dunnett’s test.
(1 picture or pasted object on this page, not shown here)
Background: Formazan colour is commonly taken as a measure of viable cells.

Broadly, the viability is a read-out of living cells in per cent, often relative to untreated cells. With `COC(=O)/C=C1/Oc2ccc(Br)cc2C1(F)F` [Compound 1], the viability at 24 h, 50 µM was determined as 50%.
